Tested on: Schistosoma mansoni
Experiment: High throughput screening of compounds against Schistosoma mansoni motility
Type: functional
Parameters: dose or concentration left out as unconfirmed

SMILES | Percent Effect [%]
CN(Cc1ncc[nH]1)S(=O)(=O)c1cccc(C(=O)N2CCOCC2)c1 | -64.53
Cc1ccc(CNCC2CCc3nnc(C(C)C)n3C2)s1 (centres undefined) | 21.49
COc1ccc(Br)c(C(=O)NCC2CCN(C(=O)c3ccoc3)CC2)c1 | -63.91
O=C(c1ccc(=O)[nH]n1)N1CC(c2nc(Cc3ccccc3)no2)C1 | -36.12
Cc1n[nH]c(C)c1C1COCCN1C(=O)Cc1cccc(F)c1 (centres undefined) | -66.08
C[C@@H]1CN(C2(C(=O)N3CCCCCC3)Cc3ccccc3C2)C[C@H](C)O1 | 12.64
Cc1cnc2c(c1NCc1ccncc1)c(=O)n(C)c(=O)n2C | -90.48
Cn1nc(C(=O)N2CCCCC2c2nc3cc(F)ccc3[nH]2)ccc1=O (centres undefined) | -12.79
O=C1CCSCC(C(=O)N2CCOCC2)N1 (centres undefined) | -55.74
CCCNC(=O)CSc1nnc2[nH]c(=O)cc(CC)n12 | -63.88
CNC(=O)c1ccc(OC2CCN(S(C)(=O)=O)CC2)c(Cl)c1 | 40.62
CSCC(=O)N1C[C@H]2CC[C@@H]1CN(Cc1ccccc1)C2 | 13.06
CC(c1ccccc1)n1c(SCC(=O)O)nnc1-c1ccccc1Cl (centres undefined) | 15.81
CC[C@@]1(O)CCN(C(=O)c2ccsc2)C[C@H]1O | -27.08
CCC(C)N(C)S(=O)(=O)c1ccc(CCNC(C)=O)s1 (centres undefined) | -44.53
CCCc1n[nH]c(C2CN(C(=O)CCCn3cccn3)CCO2)n1 (centres undefined) | -21.33
CCc1nc(CN2CCCC(N(C)Cc3cnn(C)c3)C2)no1 (centres undefined) | -19.11
CCOCCOc1ccccc1C(=O)N1CCCC(c2ncc[nH]2)C1 (centres undefined) | -53.5
CC(C)NC(=O)N1CCC(n2ccc(C(F)(F)F)n2)CC1 | -11.19
CCN(c1ccc(C(=O)N2CCCC2)cc1)S(=O)(=O)CC | 5.771
Cc1cc(C)n(Cc2ccc(C(=O)NCCN3CCOCC3)cc2)n1 | -9.196
CNC(=O)COc1ccc(CNCc2ccc(F)cc2F)cc1 | -31.94

SMILES | Percent Effect [%]
Cn1cnc(S(=O)(=O)N2CCCC2)c1Cl | -11.59
CCc1nc(CN2CCCN(Cc3cnn(C)c3)CC2)no1 | -82.4
CC(C)(C)C(=O)NCCn1ccc(-c2ccncc2)n1 | -55.77
Cc1ccsc1CN(Cc1ccccn1)CC(C)C | 6.222
CN(CCCc1cnn(C)c1)C(=O)C1CCOC1 (centres undefined) | -54.96
CNC(=O)C(C)(C)NC(=O)c1cc(OCC2CCC2)cc(C(=O)OC)c1 | -68.4
CCC(=O)N1CCC(c2nnc(Cn3cccn3)n2C2CC2)CC1 | -15.52
Cc1ccc(NC(C)C(=O)NCc2cccs2)cc1C (centres undefined) | -60.11
Cn1c(C(F)(F)F)nn(CCNC(=O)c2cnc3ccccc3n2)c1=O | -7.141
Cn1cc(-c2csc(CN3CCOCC3)n2)cn1 | 14.63
COC(=O)c1sccc1S(=O)(=O)NCC1(O)CCOc2ccccc21 (centres undefined) | -15.01
Cc1cnc2n(c1=O)CC(C(=O)Nc1ccccc1Cl)CS2 (centres undefined) | -94.31
Cc1cn(-c2ccccc2)nc1NS(=O)(=O)c1cc(C(=O)O)cs1 | -15.39
CCCNCC1(O)CCCN(Cc2cccc(C)c2)C1=O (centres undefined) | -43.91
Cc1cccc(N2CCC(NC(=O)CCCc3cccs3)CC2)n1 | -13.77
Cc1nn(C)c(N(C)C)c1CNCC(O)COc1ccccc1.Cl (centres undefined) | -91.65
CC(C)C1CN(c2ncc(F)cn2)CCC(=O)N1Cc1ccc(F)cc1 (centres undefined) | 75.74
CS(=O)(=O)N1CCC(Oc2ccc(C(=O)N3CCSCC3)cc2Cl)CC1 | -0.7709
CN1CCCN(C(=O)c2ccc3c(c2)nc(N2CCOCC2)n3C)CC1 | -26.36
COCc1cc(NCc2cc(F)ccc2F)n2nccc2n1 | -61.56
O=C(c1cccnc1)N1C[C@@H]2CC[C@H](C1)N(Cc1cc(F)ccc1F)C2 | -34.82
O=C(c1ccc(Br)o1)N1CCCC(n2cncn2)C1 (centres undefined) | -24.61

Source: ChEMBL document CHEMBL3988442, “University of Dundee, Small-Polar-MMV Screening Library” (2021)
